This is an account of results in patent publication US11065253B2, “Arylquinazolines” (Merck Patent GmbH, priority 2013, dated 2021).

Molecules are shown by their SMILES. Read-outs that look alike come from different tables or passages of the source.

The target in one data set is Kv11.1 (hERG) channel (Homo sapiens (Human), UniProt Q12809). The data set can be described thus: Kv11.1 ion channel binding assay (Predictor hERG fluorescence polarisation). As to conditions: class symbol marked with asterisk (*). As to the method:
D) Kv11.1 Ion Channel Binding Assay
Kv11.1 (hERG=human ether a go-go related […]) is a cardiac K^+ channel which should if possible not interact with the test substances. This interaction is determined quantitatively with the aid of the Predictor™ hERG Fluorescence Polarizations (FP) Assays from Life Technologies. In the case of this assay principle, cardiomyocyte cell membranes having a certain proportion of Kv11.1 channels are isolated. A dye-labelled Kv11.1 binding partner gives a high fluorescence polarisation signal by interaction with the Kv11.1. In the case of displacement of the dye, a reduction in the fluorescence polarisation signal occurs.
The assay is carried out automatically as follows: 15 nl of the test substances (highest concentration: 10 mM, 10 concentrations: dilution factors 1:3.16, DMSO) are transferred into an empty microtitre plates having 384 wells by means of an acoustic pipetter. 3 μl of the isolated membranes are subsequently added. Membranes and test substances are incubated at 22° C. for 15 min (+/−5 min). In the next step, the dye-labelled binding partner is added, followed by incubation at 22° C. After incubation for two hours, the measurement of the fluorescence polarisation is carried out on an Envision multimode Reader. Measured raw data are standardised with the aid of Genedata Assay Analyzer. The IC50 and % effect values are calculated in Genedata Condoseo.

Data set [1] deals with phospho-serine 2056 DNA-PK in HCT116 cells. The data set can be described thus: DNA-PK phosphorylation at serine 2056 (cellular), ELISA in bleomycin-treated HCT116 cells. It is filed as cell-based. As to conditions: bleomycin-treated HCT116 cells, read-out: IC50 pDNA-PK. Summed up:
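HCT116 cells grown overnight were co-treated with 10 μM bleomycin and test compound for 6 h at 37 °C. Phospho-DNA-PK was quantified by chemiluminescent ELISA and normalised to total DNA-PKcs signal, with DMSO control as blank.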
In general terms: In an ELISA, binding on a coated surface is turned into a signal by an enzyme label.

[2] abbreviates: Homo sapiens, HCT-116, phospho-serine 2056 DNA-PK.

Chain of Kv11.1 (hERG) channel (Q12809 whole entry): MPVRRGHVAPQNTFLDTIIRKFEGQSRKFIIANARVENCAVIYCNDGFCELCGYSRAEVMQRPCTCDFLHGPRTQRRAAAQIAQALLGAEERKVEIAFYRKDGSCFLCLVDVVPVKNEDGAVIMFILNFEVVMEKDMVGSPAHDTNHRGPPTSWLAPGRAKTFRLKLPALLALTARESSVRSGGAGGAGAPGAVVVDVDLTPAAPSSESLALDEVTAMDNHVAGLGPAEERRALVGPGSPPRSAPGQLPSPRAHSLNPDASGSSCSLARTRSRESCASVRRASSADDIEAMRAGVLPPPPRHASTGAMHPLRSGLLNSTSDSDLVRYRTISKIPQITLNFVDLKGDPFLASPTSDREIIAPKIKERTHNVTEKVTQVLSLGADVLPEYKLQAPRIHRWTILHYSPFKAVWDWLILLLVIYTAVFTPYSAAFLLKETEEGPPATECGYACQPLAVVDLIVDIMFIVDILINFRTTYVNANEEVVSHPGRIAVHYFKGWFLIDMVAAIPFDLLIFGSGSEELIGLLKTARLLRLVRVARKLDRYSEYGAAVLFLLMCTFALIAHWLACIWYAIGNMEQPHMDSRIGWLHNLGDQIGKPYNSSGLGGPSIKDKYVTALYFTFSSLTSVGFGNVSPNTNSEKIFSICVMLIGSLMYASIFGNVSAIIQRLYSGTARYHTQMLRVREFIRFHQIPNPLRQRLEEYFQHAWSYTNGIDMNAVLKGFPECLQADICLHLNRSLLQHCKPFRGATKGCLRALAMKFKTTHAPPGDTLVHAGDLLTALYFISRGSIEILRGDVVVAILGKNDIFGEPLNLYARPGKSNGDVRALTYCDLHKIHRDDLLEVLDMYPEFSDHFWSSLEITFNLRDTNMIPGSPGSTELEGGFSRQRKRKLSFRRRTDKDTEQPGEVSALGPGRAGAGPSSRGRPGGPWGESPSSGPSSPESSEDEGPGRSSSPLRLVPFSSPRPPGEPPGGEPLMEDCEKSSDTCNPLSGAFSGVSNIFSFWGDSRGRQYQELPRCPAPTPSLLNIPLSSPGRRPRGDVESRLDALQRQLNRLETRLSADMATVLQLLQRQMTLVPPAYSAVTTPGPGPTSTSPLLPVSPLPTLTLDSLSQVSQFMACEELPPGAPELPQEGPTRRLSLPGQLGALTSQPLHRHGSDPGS

For `Cc1nccnc1C(C(N)=O)c1ccc(F)c(-c2ncnc3cc(N4CCOCC4)sc23)c1` (centres unmarked) [Example 270, 2-[4-Fluoro-3-(6-morpholin-4-yl-thieno[3,2-d}-pyrimidin-4-yl)-phenyl]-2-(3-methyl-pyrazin-2-yl)-acetamide], the “Ki [Kv1.11 hERG]” value at Kv11.1 (hERG) channel was “A*”. For the same molecule, the IC50 in data set [1] (setting [2]) was in the range of 5 to 10 µM.
The matching figures for `COc1ccc(C(O)c2ccc(F)c(-c3ncnc4cc(N5CCOCC5)cc(F)c34)c2)nn1` (centres unmarked) [Example 255, [4-Fluoro-3-(5-fluoro-7-morpholin-4-yl-quinazolin-4-yl)-phenyl]-(6-methoxy-pyridazin-3-yl)-methanol]: “A*” and below 0.5 µM.
With `[2H]C1([2H])OC([2H])([2H])C([2H])([2H])N(c2ccc3c(-c4cc(C(O)c5nccnc5OC)c(Cl)cc4F)ncnc3c2)C1([2H])[2H]` (centres unmarked) [Example 258, [2-Chloro-4-fluoro-5-[7-(2,2,3,3,5,5,6,6-octadeuterio-morpholin-4-yl)-quinazolin-4-yl- ]phenyl]-(3-methoxy-pyrazin-2-yl)-methanol], the “Ki [Kv1.11 hERG]” value at Kv11.1 (hERG) channel is given as “A*”. In addition, the IC50 in data set [1] (phospho-serine 2056 DNA-PK) was below 0.5 µM.
In the case of `COc1nccnc1C(O)c1cc(-c2ncnc3cc(N4CCOCC4)cc(F)c23)c(F)cc1Cl` (centres unmarked) [Example 249, [2-Chloro-4-fluoro-5-(5-fluoro-7-morpholin-4-yl-quinazolin-4-yl)-phenyl]-(3-methoxy-pyrazin-2-yl)-methanol], the “Ki [Kv1.11 hERG]” value at Kv11.1 (hERG) channel is “A*”. Besides, the IC50 in data set [1] (setting [2]) is below 0.5 µM.
Consider `COc1nccnc1C(O)c1ccc(F)c(-c2ncnc3cc(N4CCOCC4)cc(F)c23)c1` (centres unmarked) [Example 252, [4-Fluoro-3-(5-fluoro-7-morpholin-4-yl-quinazolin-4-yl)-phenyl]-(3-methoxy-pyrazin-2-yl)-methanol], for which the “Ki [Kv1.11 hERG]” value at Kv11.1 (hERG) channel was “A*”. Also, the IC50 in data set [1] (phospho-serine 2056 DNA-PK) was below 0.5 µM.
For `CNC(=O)C(c1cc(-c2ncnc3cc(N4CCOCC4)ccc23)c(F)cc1Cl)c1nccnc1C` (centres unmarked) [Example 254, 2-[2-Chloro-4-fluoro-5-(7-morpholin-4-yl-quinazolin-4-yl)-phenyl]-N-methyl-2-(3-methyl-pyrazin-2-yl)acetamide], on Kv11.1 (hERG) channel, the “Ki [Kv1.11 hERG]” value is on record as “A*”. In addition, the IC50 in data set [1] (setting [2]) was 10 to 30 µM.
`COc1ccc(C(O)c2cc(-c3ncnc4cc(N5CCOCC5)cc(F)c34)c(F)cc2Cl)nn1` (centres unmarked) [Example 278, [2-chloro-4-fluoro-5-(5-fluoro-7-morpholin-4-ylquinazolin-4-yl)phenyl]-(6-methoxypyridazin-3-yl)methanol]: at Kv11.1 (hERG) channel, the “Ki [Kv1.11 hERG]” value is “A*”. Also, in data set [1] (phospho-serine 2056 DNA-PK), the IC50 was below 0.5 µM.
With `COc1nccnc1C(O)c1cc(-c2ncnc3cc(N4CCOCC4)cc(F)c23)c(F)cc1Cl` (centres unmarked) [Example 266, [2-Chloro-4-fluoro-5-(5-fluoro-7-morpholin-4-yl-quinazolin-4-yl)-phenyl]-(3-methoxy-pyrazin-2-yl)-methanol], the “Ki [Kv1.11 hERG]” value on Kv11.1 (hERG) channel is given as “A*”. Moreover, the 50% inhibitory concentration (IC50) in data set [1] (phospho-serine 2056 DNA-PK) was below 0.5 µM.
Regarding `Cc1nccnc1C(O)c1cc(-c2ncnc3cc(N4CCOCC4)sc23)c(F)cc1Cl` (centres unmarked) [Example 264, [2-Chloro-4-fluoro-5-(6-morpholin-4-yl-thieno[3,2-d}-pyrimidin-4-yl)-phenyl]-(3-methyl-pyrazin-2-yl)-methanol], the “Ki [Kv1.11 hERG]” value on Kv11.1 (hERG) channel is on record as “A*”. Further, in data set [1] (setting [2]), the IC50 is below 0.5 µM.
Consider `Cc1nccnc1C(O)c1ccc(F)c(-c2ncnc3cc(N4CCOCC4)sc23)c1` (centres unmarked) [Example 265, [4-Fluoro-3-(6-morpholin-4-yl-thieno[3,2-d}-pyrimidin-4-yl)-phenyl]-(3-methyl-pyrazin-2-yl)-methanol], for which the “Ki [Kv1.11 hERG]” value at Kv11.1 (hERG) channel is on record as “A*”. Also, the IC50 in data set [1] (phospho-serine 2056 DNA-PK) is below 0.5 µM.
The like results for `[2H]C1([2H])OC([2H])([2H])C([2H])([2H])N(c2ccc3c(-c4cc(C(O)c5nccnc5C)ccc4F)ncnc3c2)C1([2H])[2H]` (centres unmarked) [Example 259, [4-Fluoro-3-[7-(2,2,3,3,5,5,6,6-octadeuterio-morpholin-4-yl)quinazolin-4-yl]phenyl]-(3-methyl-pyrazin-2-yl)-methanol] were, in that order, “A*” and below 0.5 µM.
On to `CNC(=O)C(c1ccc2nccn2n1)c1cc(-c2ncnc3cc(N4CCOCC4)ccc23)c(F)cc1Cl` (centres unmarked) [Example 236, 2-[2-Chloro-4-fluoro-5-(7-morpholin-4-yl-quinazolin-4-yl)-phenyl]-2-imidazo-[1,2-b]pyridazin-6-yl-N-methylacetamide], for which the “Ki [Kv1.11 hERG]” value at Kv11.1 (hERG) channel is given as “A*”. Further, the IC50 in data set [1] (setting [2]) was 5 to 10 µM.
Consider `COc1ccc(C(O)c2ccc(F)c(-c3ncnc4cc(N5CCOCC5)cc(F)c34)c2)nn1` (centres unmarked) [Example 256, [4-Fluoro-3-(5-fluoro-7-morpholin-4-yl-quinazolin-4-yl)-phenyl]-(6-methoxy-pyridazin-3-yl)-methanol], for which the “Ki [Kv1.11 hERG]” value on Kv11.1 (hERG) channel was “A*”. Further, the IC50 in data set [1] (phospho-serine 2056 DNA-PK) was below 0.5 µM.
In the case of `Cc1nccnc1[C@@H](O)c1ccc(F)c(-c2ncnc3cc(N4CCOCC4)cc(F)c23)c1` [Example 251, (S)-[4-fluoro-3-(5-fluoro-7-morpholin-4-ylquinazolin-4-yl)-phenyl]-(3-methyl-pyrazin-2-yl)-methanol], at Kv11.1 (hERG) channel, the “Ki [Kv1.11 hERG]” value was “A*”. Also, the IC50 in data set [1] (setting [2]) was in the range of 0.5 to 5 µM.
The like results for `Cc1nccnc1C(O)c1ccc(F)c(-c2ncnc3cc(N4CCOCC4)sc23)c1` (centres unmarked) [Example 245, [4-Fluoro-3-(6-morpholin-4-yl-thieno[3,2-d}-pyrimidin-4-yl)-phenyl]-(3-methyl-pyrazin-2-yl)-methanol] were, in that order, “A*” and below 0.5 µM.
The like results for `Cc1nccnc1C(C(N)=O)c1cc(-c2ncnc3cc(N4CCOCC4)sc23)c(F)cc1Cl` (centres unmarked) [Example 269, 2-[2-Chloro-4-fluoro-5-(6-morpholin-4-yl-thieno[3,2-d}-pyrimidin-4-yl)-phenyl]-2-(3-methyl-pyrazin-2-yl)-acetamide] were, in that order, “A*” and 0.5 to 5 µM.
The like results for `Fc1cc(Cl)c(Cc2ccc3nccn3n2)cc1-c1ncnc2cc(N3CCOCC3)ccc12` [Example 235, 4-(4-Chloro-2-fluoro-5-imidazo[1,2-b]-pyridazin-6-ylmethyl-phenyl)-7-morpholin-4-ylquinazoline] were, in that order, “A*” and below 0.5 µM.
For `COc1nccnc1C(O)c1ccc(F)c(-c2ncnc3cc(N4CCOCC4)cc(F)c23)c1` (centres unmarked) [Example 267, [4-Fluoro-3-(5-fluoro-7-morpholin-4-yl-quinazolin-4-yl)-phenyl]-(3-methoxy-pyrazin-2-yl)-methanol], on Kv11.1 (hERG) channel, the “Ki [Kv1.11 hERG]” value is listed as “A*”. For the same molecule, the IC50 in data set [1] (phospho-serine 2056 DNA-PK) is below 0.5 µM.
As to `CN1N=C(C(O)c2cc(-c3ncnc4cc(N5CCOCC5)ccc34)c(F)cc2Cl)CCC1=O` (centres unmarked) [Example 288, 6-{[2-Chloro-4-fluoro-5-(7-morpholin-4-yl-quinazolin-4-yl)-phenyl]hydroxy-methyl}-2-methyl-4,5-dihydro-2H-pyridazin-3-one], on Kv11.1 (hERG) channel, the “Ki [Kv1.11 hERG]” value is “A*”. In data set [1] (setting [2]), the IC50 fell in the range of 5 to 10 µM.

The IC50 is the concentration at which inhibition is half-maximal.
